# Measured values published in patent publication US10392346B2, “Kinase inhibitors” (Topivert Pharma Limited, priority 2014, dated 2019).
# Test system: Jurkat cells
# Assay: Cell cytotoxicity assay (assay r)
# Type: cell-based, human
# Settings: 24 hours
# Description: 1×10^5 Jurkat cells (immortalised human T lymphocytes) are added to the appropriate number of wells of a 96 well plate in 100 μL of media (RPMI supplemented with 10% foetal bovine serum). 1 μL of DMSO control (final concentration 1.0% v/v) or test compound (final concentration 20, 5 or 1 μg/mL) is added to the wells and incubated at 37° C., 5% CO2. After 24 hours, the plate is centrifuged at 1200 rpm for 3 minutes and the supernatant discarded. Cells are then resuspended in 150 μL (final concentration 7.5 μg/mL) of propidium iodide (PI) in PBS and incubated at 37° C., 5% CO2 for 15 minutes. After 15 minutes, cells are analysed by flow cytometry (BD accuri) using the FL3 window. The % viability is calculated as the % of cells that are PI negative in the test wells normalised to the DMSO control.
structure (smiles),measurement,value
"COc1cc(Nc2cc(Oc3ccc(NC(=O)Nc4cc(C(C)(C)C)cc(NS(C)(=O)=O)c4OC)c4ccccc34)ccn2)ccc1C(=O)NC[C@@H]1O[C@H](CO)[C@@H](O)[C@H](O)[C@H]1O [17(co), 4-((4-((4-(3-(5-(tert-Butyl)-2-methoxy-3-(methylsulfonamido)phenyl)ureido)naphthalen-1-yl)oxy)pyridin-2-yl)amino)-2-methoxy-N-(((2S,3R,4R,5S,6R)-3,4,5-trihydroxy-6-(hydroxymethyl)tetrahydro-2H-pyran-2-yl)methyl)benzamide]",% Viability at 1 μg/mL,74.3%
